Reference: patent US10745361B2, “Piperazine derivatives having multimodal activity against pain” (ESTEVE PHARMACEUTICALS, S.A., priority 2013, dated 2020)

System: human σ1 receptor and human μ-opioid receptor
Experiment: Human σ1 receptor radioligand assay and human μ-opioid receptor radioligand assay (μ and σ1 dual binding)
Design: key to μ and σ1 dual binding: +: Both Ki-μ and Ki-σ1>=500 nM; ++: One K, <500 nM while the other K, is >=500 nM; +++: Both Ki-μ and Ki-σ1<500 nM; ++++: Both Ki-μ and Ki-σ1<100 nM
Details: one class for both Ki: σ1 ([3H](+)-pentazocine, transfected HEK-293 membranes) and μ-opioid ([3H]-DAMGO, transfected CHO-K1 membranes)
Experimental: Human σ1 Receptor Radioligand Assay
To investigate binding properties of σ1 receptor ligands to human σ1 receptor, transfected HEK-293 membranes and [^3H](+)-pentazocine (Perkin Elmer, NET-1056), as the radioligand, were used. The assay was carried out with 7 μg of membrane suspension, 5 nM of [^3H](+)-pentazocine in either absence or presence of either buffer or 10 μM Haloperidol for total and non-specific binding, respectively. Binding buffer contained Tris-HCl 50 mM at pH 8. Plates were incubated at 37° C. for 120 minutes. After the incubation period, the reaction mix was then transferred to MultiScreen HTS, FC plates (Millipore), filtered and plates were washed 3 times with ice-cold 10 mM Tris-HCL (pH7.4). Filters were dried and counted at approximately 40% efficiency in a MicroBeta scintillation counter (Perkin-Elmer) using EcoScint liquid scintillation cocktail
Human μ-Opioid Receptor Radioligand Assay
To investigate binding properties of p-opioid receptor ligands to human p-opioid receptor, transfected CHO-K1 cell membranes and [^3H]-DAMGO (Perkin Elmer, ES-542-C), as the radioligand, were used. The assay was carried out with 20 μg of membrane suspension, 1 nM of [^3H]-DAMGO in either absence or presence of either buffer or 10 μM Naloxone for total and non-specific binding, respectively. Binding buffer contained Tris-HCl 50 mM, MgCl2 5 mM at pH 7.4. Plates were incubated at 27° C. for 60 minutes. After the incubation period, the reaction mix was then transferred to MultiScreen HTS, FC plates (Millipore), filtered and plates were washed 3 times with ice-cold 10 mM Tris-HCL (pH 7.4). Filters were dried and counted at approximately 40% efficiency in a MicroBeta scintillation counter (Perkin-Elmer) using
EcoScint liquid scintillation cocktail.
The following scale as been adopted for representing the binding to the σ1 receptor and the μ-opiod receptor expressed as Ki: • + Both Ki-μ and Ki-σ1>=500 nM • ++ One K, <500 nM while the other K, is >=500 nM • +++ Both Ki-μ and Ki-σ1<500 nM • ++++ Both Ki-μ and Ki-σ1<100 nM

Compound | μ and σ1 dual binding | Ki [nM]
CC(C)S(=O)(=O)Nc1cccc(N2CC3CN(Cc4cn(-c5ccccc5F)nn4)CC3C2)n1 (stereo not shown) [Example 61, N-(6-(5-((1-(2-fluorophenyl)-1H-1,2,3-triazol-4-yl)methyl)hexahydropyrrolo[3,4-c]pyrrol-2(1H)-yl)pyridin-2-yl)propane-2-sulfonamide] | ++ | 
CC(C)S(=O)(=O)Nc1cccc(N2CCN(Cc3cn(-c4ccccn4)cn3)CC2)n1 [Example 62, N-(6-(4-((1-(pyridin-2-yl)-1H-imidazol-4-yl)methyl)piperazin-1-yl)pyridin-2-yl)propane-2-sulfonamide] |  | < 500
Nc1cccc(N2CCN(Cc3cn(-c4ccccc4)nn3)CC2)n1 [Example 63, 6-(4-((1-phenyl-1H-1,2,3-triazol-4-yl)methyl)piperazin-1-yl)pyridin-2-amine] |  | ≥ 500
O=S(=O)(Nc1cccc(N2CCN(Cc3cn(-c4ncccc4F)nn3)CC2)n1)C1CC1 [Example 64, N-(6-(4-((1-(3-fluoropyridin-2-yl)-1H-1,2,3-triazol-4-yl)methyl)piperazin-1-yl)pyridin-2-yl)cyclopropanesulfonamide] | ++ | 
O=S(=O)(Nc1cccc(N2CCN(Cc3cn(-c4cc(F)ccc4F)nn3)CC2)n1)C1CC1 [Example 65, N-(6-(4-((1-(2,5-difluorophenyl)-1H-1,2,3-triazol-4-yl)methyl)piperazin-1-yl)pyridin-2-yl)cyclopropanesulfonamide] | ++ | 
Cc1ccc(F)c(-n2cc(CN3CCN(c4cccc(NS(=O)(=O)C5CC5)n4)CC3)nn2)c1 [Example 66, N-(6-(4-((1-(2-fluoro-5-methylphenyl)-1H-1,2,3-triazol-4-yl)methyl)piperazin-1-yl)pyridin-2-yl)cyclopropanesulfonamide] | ++ | 
O=S(=O)(Nc1cccc(N2CCN(Cc3cn(-c4ccc(C(F)(F)F)cn4)nn3)CC2)n1)C1CC1 [Example 67, N-(6-(4-((1-(5-(trifluoromethyl)pyridin-2-yl)-1H-1,2,3-triazol-4-yl)methyl)piperazin-1-yl)pyridin-2-yl)cyclopropanesulfonamide] | ++ | 
O=S(=O)(Nc1cccc(N2CCN(Cc3cn(-c4ccc(C(F)(F)F)cc4)nn3)CC2)n1)C1CC1 [Example 68, N-(6-(4-((1-(4-(trifluoromethyl)phenyl)-1H-1,2,3-triazol-4-yl)methyl)piperazin-1-yl)pyridin-2-yl)cyclopropanesulfonamide] | ++ | 
O=S(=O)(Nc1cccc(N2CCN(Cc3cn(-c4ccc(C(F)(F)F)cc4F)nn3)CC2)n1)C1CC1 [Example 69, N-(6-(4-((1-(2-fluoro-4-(trifluoromethyl)phenyl)-1H-1,2,3-triazol-4-yl)methyl)piperazin-1-yl)pyridin-2-yl)cyclopropanesulfonamide] | ++ | 
O=S(=O)(Nc1cccc(N2CCN(Cc3cn(-c4ccccc4)cn3)CC2)n1)C1CC1 [Example 70, N-(6-(4-((1-phenyl-1H-imidazol-4-yl)methyl)piperazin-1-yl)pyridin-2-yl)cyclopropanesulfonamide] |  | < 500
O=S(=O)(Nc1cccc(N2CCN(Cc3cn(-c4ccccc4F)cn3)CC2)n1)C1CC1 [Example 71, N-(6-(4-((1-(2-fluorophenyl)-1H-imidazol-4-yl)methyl)piperazin-1-yl)pyridin-2-yl)cyclopropanesulfonamide] |  | < 500
Nc1cccc(N2CCN(Cc3cn(-c4ccccc4F)nn3)CC2)n1 [Example 72, 6-(4-((1-(2-fluorophenyl)-1H-1,2,3-triazol-4-yl)methyl)piperazin-1-yl)pyridin-2-amine] | ++ | 
O=S(=O)(Nc1cccc(N2CCN(Cc3cn(-c4ccccn4)cn3)CC2)n1)C1CC1 [Example 73, N-(6-(4-((1-(pyridin-2-yl)-1H-imidazol-4-yl)methyl)piperazin-1-yl)pyridin-2-yl)cyclopropanesulfonamide] |  | < 500
